Results as given in paper PMC6311893, “Computational prediction of plasma protein binding of cyclic peptides from small molecule experimental data using sparse modeling techniques” (BMC Bioinformatics, 2018).
Positions of bridges follow the written chain, without caps; N, C: chain ends. Residues, ends and D or L forms follow the SMILES beside them.

Test system: not listed separately
Assay: in vitro
Assay type: in vitro ADME
Settings: human, plasma, Exp. PPB (fb*)
Protocol: (§1) As the number of publicly available data of cyclic peptide drugs is small compared to that of small molecule, we additionally designed and experimented with 16 cyclic peptides composed exclusively of natural amino acids. First, linear peptides were synthesized. Then, circularization was achieved by making a disulfide bond between N-terminal and C-terminal cysteine residues and confirmed by TOF/MS and HPLC analyses. Human PPB values fb were determined by the equilibrium dialysis method. Frozen human plasma was thawed immediately at room temperature. Then, the plasma was centrifuged at 3220 g for 10 min to remove clots and the supernatant was collected into a fresh tube. The working solutions of test compounds were prepared in DMSO at a concentration of 200 μM. Then, 3 μL of the working solution was removed for mixing with 597 μL of human plasma to achieve a final concentration of 1 μM (0.5% DMSO). The plasma samples were vortexed thoroughly. The dialysis membranes (HTD 96a/b Dialysis Membrane Strips MWCO 12-14 K, Cat. #1101, Batch# 1141 (12–17)) were soaked in ultrapure water for 60 min to separate the strips, then in 20% ethanol for 20 min, and finally in the dialysis buffer (100 mM sodium phosphate and 150 mM NaCl) for 20 min. The dialysis apparatus was assembled according to the manufacturer’s instructions. Each cell was filled with the spiked plasma sample and dialyzed against equal volume of the dialysis buffer. The assay was performed in duplicate. The dialysis plate was sealed and incubated in an incubator at 37 °C with 5% CO2 at 100 rpm for 6 h. At the end of incubation, the seal was removed and 50 μL of samples from both buffer and plasma chambers were transferred to wells of a 96-well plate. 50 μL of blank plasma was added to each buffer sample and an equal volume of phosphate buffered saline was supplemented to the collected plasma sample. […] Samples in the plate were vortexed for 5 min and centrifuged at 3220 g for 30 min at 4 °C. Then, the supernatant was transferred to a new 96-well plate with 100 μL or 200 μL water (depending on the LC-MS signal response and peak shape) for LC-MS/MS analysis.
CC[C@H](C)[C@@H]1NC(=O)[C@H](CCCNC(=N)N)NC(=O)[C@@H](N)CSSC[C@@H](C(=O)O)NC(=O)[C@H](Cc2ccc(O)cc2)NC(=O)[C@H](CCCNC(=N)N)NC(=O)[C@H](CCCCN)NC1=O [Pep.16] (H-CRIKRYC-OH; disulfide 1-7; N-terminus and C-terminus assumed) gave a fraction unbound at 6 h, 1 μM of 0.849.
C[C@@H](O)[C@@H]1NC(=O)[C@H](CCCCN)NC(=O)[C@H](Cc2c[nH]c3ccccc23)NC(=O)[C@H](Cc2ccccc2)NC(=O)[C@H](Cc2ccccc2)NC(=O)[C@@H](N)CSSC[C@@H](C(=O)O)NC(=O)[C@H]([C@@H](C)O)NC1=O [Pep.6] (H-CFFWKTTC-OH; disulfide 1-8; N-terminus and C-terminus assumed) gave a fraction unbound at 6 h, 1 μM of 0.737.
With CC[C@H](C)[C@@H]1NC(=O)[C@H](Cc2ccc(O)cc2)NC(=O)[C@@H](N)CSSC[C@@H](C(=O)O)NC(=O)CNC(=O)[C@H](CC(C)C)NC(=O)[C@@H]2CCCN2C(=O)[C@H](CC(N)=O)NC(=O)[C@H](CCC(N)=O)NC1=O [Pep.2] (H-CYIQNPLGC-OH; disulfide 1-9; N-terminus and C-terminus assumed) the fraction unbound at 6 h, 1 μM was 0.995.
C[C@@H]1NC(=O)[C@H](Cc2c[nH]c3ccccc23)NC(=O)[C@H](C)NC(=O)[C@@H]2CCCN2C(=O)[C@H](C)NC(=O)[C@@H](N)CSSC[C@@H](C(=O)O)NC(=O)CNC(=O)[C@H](Cc2c[nH]cn2)NC1=O [Pep.14] (H-CAPAWAHGC-OH; disulfide 1-9; N-terminus and C-terminus assumed) showed a fraction unbound at 6 h, 1 μM of 0.926.
For NC(=O)CC[C@@H]1NC(=O)[C@H](Cc2c[nH]c3ccccc23)NC(=O)[C@@H]2CCCN2C(=O)[C@H](CCC(N)=O)NC(=O)[C@H](CC(N)=O)NC(=O)[C@@H](N)CSSC[C@@H](C(=O)O)NC1=O [Pep.11] (H-CNQPWQC-OH; disulfide 1-7; N-terminus and C-terminus assumed), the fraction unbound at 6 h, 1 μM was 1.
Compound CC(C)C[C@@H]1NC(=O)[C@H](Cc2c[nH]c3ccccc23)NC(=O)[C@H](CC(=O)O)NC(=O)[C@H](CC(=O)O)NC(=O)[C@H](Cc2ccccc2)NC(=O)[C@H](CO)NC(=O)[C@@H](N)CSSC[C@@H](C(=O)O)NC(=O)[C@H](C)NC1=O [Pep.12] (H-CSFDDWLAC-OH; disulfide 1-9; N-terminus and C-terminus assumed) has a fraction unbound at 6 h, 1 μM of 0.2.
In the case of N[C@H]1CSSC[C@@H](C(=O)O)NC(=O)[C@H](Cc2ccc(O)cc2)NC(=O)[C@H](Cc2ccc(O)cc2)NC(=O)[C@H](Cc2ccc(O)cc2)NC(=O)[C@H](Cc2ccc(O)cc2)NC(=O)[C@H](Cc2ccc(O)cc2)NC(=O)[C@H](Cc2ccc(O)cc2)NC(=O)[C@H](Cc2ccc(O)cc2)NC1=O [Pep.8] (H-CYYYYYYYC-OH; disulfide 1-9; N-terminus and C-terminus assumed), the fraction unbound at 6 h, 1 μM is reported as 0.145.
Work on CC(C)C[C@@H]1NC(=O)[C@H](Cc2ccc(O)cc2)NC(=O)[C@@H](N)CSSC[C@@H](C(=O)O)NC(=O)CNC(=O)[C@H](Cc2c[nH]cn2)NC(=O)[C@H](Cc2ccc(O)cc2)NC(=O)[C@H](CCC(=O)O)NC(=O)[C@H](C)NC1=O [Pep.13] (H-CYLAEYHGC-OH; disulfide 1-9; N-terminus and C-terminus assumed) yielded a fraction unbound at 6 h, 1 μM of 0.651.
For NCCCC[C@@H]1NC(=O)[C@H](Cc2c[nH]c3ccccc23)NC(=O)[C@H](Cc2ccccc2)NC(=O)[C@@H]2CCCN2C(=O)[C@H](Cc2ccccc2)NC(=O)[C@@H](N)CSSC[C@@H](C(=O)O)NC(=O)[C@H](Cc2ccc(O)cc2)NC1=O [Pep.4] (H-CFPFWKYC-OH; disulfide 1-8; N-terminus and C-terminus assumed), the fraction unbound at 6 h, 1 μM was 0.384.
In the case of CC(C)[C@@H]1NC(=O)[C@H](CCCCN)NC(=O)[C@H](Cc2c[nH]c3ccccc23)NC(=O)[C@H](C)NC(=O)[C@@H](N)CSSC[C@@H](C(=O)O)NC(=O)[C@H]([C@@H](C)O)NC1=O [Pep.3] (H-CAWKVTC-OH; disulfide 1-7; N-terminus and C-terminus assumed), the fraction unbound at 6 h, 1 μM is reported as 1.
In the case of N=C(N)NCCC[C@@H]1NC(=O)[C@@H]2CCCN2C(=O)[C@H](CC(N)=O)NC(=O)[C@H](CCC(N)=O)NC(=O)[C@H](Cc2ccccc2)NC(=O)[C@H](Cc2ccc(O)cc2)NC(=O)[C@@H](N)CSSC[C@@H](C(=O)O)NC(=O)CNC1=O [Pep.1] (H-CYFQNPRGC-OH; disulfide 1-9), the fraction unbound at 6 h, 1 μM is reported as 0.76.
CC(C)C[C@@H]1NC(=O)CNC(=O)[C@H](C)NC(=O)[C@@H](N)CSSC[C@@H](C(=O)O)NC(=O)[C@H](C)NC(=O)[C@H](C)NC(=O)[C@H](CC(C)C)NC(=O)[C@H](C(C)C)NC1=O [Pep.9] (H-CAGLVLAAC-OH; disulfide 1-9; N-terminus and C-terminus assumed) gave a fraction unbound at 6 h, 1 μM of 1.
For CC(C)[C@@H]1NC(=O)[C@H](C)NC(=O)[C@H](CO)NC(=O)[C@H](Cc2ccc(O)cc2)NC(=O)[C@H](C(C)C)NC(=O)[C@H](Cc2ccccc2)NC(=O)[C@@H](N)CSSC[C@@H](C(=O)O)NC1=O [Pep.15] (H-CFVYSAVC-OH; disulfide 1-8; N-terminus and C-terminus assumed), the fraction unbound at 6 h, 1 μM was 0.847.
With CC(C)C[C@@H]1NC(=O)[C@H](CC(C)C)NC(=O)[C@H](CCCCN)NC(=O)[C@@H](N)CSSC[C@@H](C(=O)O)NC(=O)[C@H]([C@@H](C)O)NC(=O)[C@H](CCCCN)NC(=O)[C@H](CCCCN)NC1=O [Pep.7] (H-CKLLKKTC-OH; disulfide 1-8; N-terminus and C-terminus assumed) the fraction unbound at 6 h, 1 μM was 1.
Compound CC(C)[C@@H]1NC(=O)[C@H](Cc2c[nH]c3ccccc23)NC(=O)[C@@H](N)CSSC[C@@H](C(=O)O)NC(=O)[C@H](CCC(=O)O)NC(=O)[C@H](Cc2ccccc2)NC(=O)[C@H](CCC(N)=O)NC(=O)[C@@H]2CCCN2C(=O)[C@H](Cc2c[nH]cn2)NC1=O [Pep.10] (H-CWVHPQFEC-OH; disulfide 1-9; N-terminus and C-terminus assumed) has a fraction unbound at 6 h, 1 μM of 0.633.
With CC(C)[C@@H]1NC(=O)[C@H](CCCNC(=N)N)NC(=O)[C@@H]2CCCN2C(=O)[C@H](CCCNC(=N)N)NC(=O)[C@H](Cc2c[nH]c3ccccc23)NC(=O)[C@@H](N)CSSC[C@@H](C(=O)O)NC(=O)[C@H](CCCNC(=N)N)NC(=O)[C@H](C)NC1=O [Pep.5] (H-CWRPRVARC-OH; disulfide 1-9; N-terminus and C-terminus assumed) the fraction unbound at 6 h, 1 μM was 1.

Test system: human plasma
Assay: in vitro
Assay type: in vitro ADME
Settings: 6 h, 1 μM
Protocol: as §1
In the case of N=C(N)NCCC[C@@H]1NC(=O)[C@@H]2CCCN2C(=O)[C@H](CC(N)=O)NC(=O)[C@H](CCC(N)=O)NC(=O)[C@H](Cc2ccccc2)NC(=O)[C@H](Cc2ccc(O)cc2)NC(=O)[C@@H](N)CSSC[C@@H](C(=O)O)NC(=O)CNC1=O [Pep.1] (H-CYFQNPRGC-OH; disulfide 1-9), the “Exp. PPB (fb*)” value is reported as 0.242.
